Paper PMC9902548, “In silico and in vitro anti-inflammatory study of phenolic compounds isolated from Eucalyptus maculata resin” (Scientific Reports, 2023)
pIC50: −log10 of the molar value.

Columns and labels:
TNF-R2 = biological target: T1, TNF-R2 (Homo sapiens, UniProt P20333); assay: TNF-R2 binding activity, ELISA kit; conditions: mean ± SD, average of three determinations
T1 construct: purchased BPS Bioscience 79756
T1 sequence (P20333 23-257 limits assumed): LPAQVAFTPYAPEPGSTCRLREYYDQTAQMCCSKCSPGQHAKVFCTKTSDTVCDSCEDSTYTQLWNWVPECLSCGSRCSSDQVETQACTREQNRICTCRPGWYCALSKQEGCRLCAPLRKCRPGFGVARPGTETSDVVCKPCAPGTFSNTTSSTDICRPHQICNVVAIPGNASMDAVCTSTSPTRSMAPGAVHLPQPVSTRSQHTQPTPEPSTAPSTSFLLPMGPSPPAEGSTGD

COX-2 [1] = biological target: T2, COX-2 (Homo sapiens, UniProt P35354); assay: COX-2 inhibition, enzyme immunoassay (EIA) kit
T2 sequence (P35354 18-604): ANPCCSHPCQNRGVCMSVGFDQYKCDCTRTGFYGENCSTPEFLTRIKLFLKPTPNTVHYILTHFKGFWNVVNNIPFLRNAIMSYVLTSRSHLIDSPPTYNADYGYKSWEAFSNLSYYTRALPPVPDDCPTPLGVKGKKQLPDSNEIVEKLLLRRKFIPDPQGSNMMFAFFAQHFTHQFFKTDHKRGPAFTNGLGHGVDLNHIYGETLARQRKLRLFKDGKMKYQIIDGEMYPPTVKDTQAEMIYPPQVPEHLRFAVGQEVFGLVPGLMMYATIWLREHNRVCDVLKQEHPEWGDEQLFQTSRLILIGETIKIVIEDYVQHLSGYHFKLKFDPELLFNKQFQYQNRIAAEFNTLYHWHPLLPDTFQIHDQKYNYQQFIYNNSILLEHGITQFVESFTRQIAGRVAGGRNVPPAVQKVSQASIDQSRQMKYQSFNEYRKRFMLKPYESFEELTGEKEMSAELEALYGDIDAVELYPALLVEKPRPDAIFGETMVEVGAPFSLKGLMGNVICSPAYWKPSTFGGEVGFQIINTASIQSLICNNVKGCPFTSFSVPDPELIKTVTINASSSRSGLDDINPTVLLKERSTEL
Procedure: All enzyme inhibition activities were performed in triplicate and were examined using the sample t-test using the SPSS 26.0 program at (p < 0.05) (Table 1).

NF-KB = NF-KB inhibition, ELISA kit; assay type: biochemical; conditions: for NF- KB IC50 ± SD: mean ± SD, average of three determinations
Procedure: (§1) The 50% inhibitory concentration (IC50) values were calculated from the concentration-inhibition response curve.
(§2) Cyclooxygenases (COX-1 and COX-2) were measured by an enzyme immunoassay (EIA) kit (Cayman Chemical, Ann Arbor, MI, USA) according to the manufacturer’s instructions. TNF-R2, NF-KB, and NO were measured by ELISA kit (#79756, BPS Bioscience, USA), (#CSB-EL015761HU, Cusabio, China).

NO = NO inhibition, ELISA kit; assay type: biochemical; conditions: mean ± SD, average of three determinations
Procedure: as §1, §2

COX-1 = COX-1 (Ovis aries, UniProt P05979); design: method as in ref 15 (Zhang et al.); conditions: ref 15 (Zhang et al.); cited from earlier work
COX-2 [2] = biological target: T2, COX-2; design: purchased Cayman Chemical; method as in ref 15 (Zhang et.al 2006); conditions: ref 15 (Zhang et.al 2006); cited from earlier work

Sequence of COX-1 (P05979 25-600): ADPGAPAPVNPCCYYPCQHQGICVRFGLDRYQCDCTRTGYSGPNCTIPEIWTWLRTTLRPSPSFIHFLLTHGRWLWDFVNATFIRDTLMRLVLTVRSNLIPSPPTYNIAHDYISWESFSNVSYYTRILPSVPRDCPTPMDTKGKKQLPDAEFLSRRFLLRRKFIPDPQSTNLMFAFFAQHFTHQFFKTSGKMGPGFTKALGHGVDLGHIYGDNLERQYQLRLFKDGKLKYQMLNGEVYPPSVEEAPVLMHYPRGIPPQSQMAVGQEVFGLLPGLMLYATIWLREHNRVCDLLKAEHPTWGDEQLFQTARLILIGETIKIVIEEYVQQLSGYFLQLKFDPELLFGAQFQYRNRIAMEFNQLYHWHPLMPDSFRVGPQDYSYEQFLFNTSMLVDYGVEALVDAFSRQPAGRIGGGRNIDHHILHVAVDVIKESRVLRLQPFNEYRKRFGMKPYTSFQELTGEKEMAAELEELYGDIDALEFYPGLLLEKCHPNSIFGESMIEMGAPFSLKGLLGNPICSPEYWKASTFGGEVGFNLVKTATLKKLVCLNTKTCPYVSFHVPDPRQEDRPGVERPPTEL

pIC50 (TNF-R2)	COX-2 inhibitory activity (in words) (COX-2 [1])	pIC50 (COX-2 [1])	NF- KB IC50 ± SD (NF-KB) [ng/mL]	NO IC50 ± SD (NO) [µg/mL]	SMILES	Suppression of NF-KB (in words) (NF-KB)	Inhibitory effects on COX-1 (in words) (COX-1)	Inhibitory activity against COX-2 (in words) (COX-2 [2])
7.51	moderate inhibitory activity	4.95	0.01007 ± 9e-05	82.00 ± 1.06	COc1cc(O)c2c(c1)O[C@H](c1ccc(O)cc1)CC2=O [Compound C1, (2S)-5,4'-dihydroxy-7-methoxyflavanone]	significantly moderate suppression	moderate inhibitory effects	no inhibitory activity
7.29	–	4.46	0.00877 ± 7e-05	66.00 ± 0.69	O=C(O)/C=C/c1ccccc1 [Compound C2, (E)-cinnamic acid]	significantly moderate suppression	–	–
–	–	–	–	49.20 ± 0.80	O=[N+]([O-])c1cccc2cn[nH]c12 [7-nitroindazole, 7-nitroindazole, reference compound]	–	–	–
7.93	–	5.58	0.00607 ± 7e-05	38.00 ± 0.04	O=C(C=Cc1ccccc1)OCC1OC(OC(=O)C=Cc2ccccc2)C(O)C(O)C1O [Compound C5, 1,6-dicinnamoyl-O-α-D-glucopyranoside]	–	–	–
–	–	–	0.0078 ± 3e-05	–	COc1cc(/C=C/C(=O)CC(=O)/C=C/c2ccc(O)c(OC)c2)ccc1O [Curcumin, reference compound]	–	–	–
7.56	moderate inhibitory activity	5.07	0.00933 ± 3e-05	76.40 ± 1.74	COc1cc(O)c2c(c1)O[C@H](c1ccc(O)cc1)[C@@H](O)C2=O [Compound C4, 7-O-methyl aromadendrin]	significantly moderate suppression	moderate inhibitory effects	no inhibitory activity
